# Experimental data as given in ChEMBL document CHEMBL3045868, “Synthesis and antibacterial activities of para-alkoxy phenyl--ketoaldehyde derivatives” (Med Chem Res, 2013).
# Key:
# Pseudomonas aeruginosa = assay: Antibacterial activity against Pseudomonas aeruginosa ATCC 27853 assessed as growth inhibition after 16 to 18 hr NCCLS agar dilution method; assay type: functional
# Staphylococcus aureus = assay: Antibacterial activity against Staphylococcus aureus ATCC 25923 assessed as growth inhibition after 16 to 18 hr by NCCLS agar dilution method; assay type: functional
# Escherichia coli = assay: Antibacterial activity against Escherichia coli ATCC 25922 assessed as growth inhibition after 16 to 18 hr NCCLS agar dilution method; assay type: functional
# Helicobacter pylori [1] = assay: Antibacterial activity against Helicobacter pylori 05-9 assessed as growth inhibition after 16 to 18 hr NCCLS agar dilution method; assay type: functional
# Helicobacter pylori [2] = assay: Antibacterial activity against Helicobacter pylori 06-1 assessed as growth inhibition after 16 to 18 hr NCCLS agar dilution method; assay type: functional
# Helicobacter pylori [3] = assay: Antibacterial activity against Helicobacter pylori 06-4 assessed as growth inhibition after 16 to 18 hr NCCLS agar dilution method; assay type: functional
# Helicobacter pylori [4] = assay: Antibacterial activity against Helicobacter pylori 05-12 assessed as growth inhibition after 16 to 18 hr NCCLS agar dilution method; assay type: functional
# Helicobacter pylori [5] = assay: Antibacterial activity against Helicobacter pylori 06-6 assessed as growth inhibition after 16 to 18 hr NCCLS agar dilution method; assay type: functional
# Helicobacter pylori [6] = assay: Antibacterial activity against Helicobacter pylori 06-8 assessed as growth inhibition after 16 to 18 hr NCCLS agar dilution method; assay type: functional
# Helicobacter pylori [7] = assay: Antibacterial activity against Helicobacter pylori 06-5 assessed as growth inhibition after 16 to 18 hr NCCLS agar dilution method; assay type: functional
# Helicobacter pylori [8] = assay: Antibacterial activity against Helicobacter pylori 06-3 assessed as growth inhibition after 16 to 18 hr NCCLS agar dilution method; assay type: functional
# Helicobacter pylori [9] = assay: Antibacterial activity against Helicobacter pylori 05-2 assessed as growth inhibition after 16 to 18 hr NCCLS agar dilution method; assay type: functional
# Helicobacter pylori [10] = assay: Antibacterial activity against Helicobacter pylori ATCC 11637 assessed as growth inhibition after 16 to 18 hr NCCLS agar dilution method; assay type: functional
# Helicobacter pylori [11] = assay: Antibacterial activity against Helicobacter pylori 05-14 assessed as growth inhibition after 16 to 18 hr NCCLS agar dilution method; assay type: functional
# Helicobacter pylori [12] = assay: Antibacterial activity against Helicobacter pylori 06-7 assessed as growth inhibition after 16 to 18 hr NCCLS agar dilution method; assay type: functional
# Helicobacter pylori [13] = assay: Antibacterial activity against Helicobacter pylori 05-1 assessed as growth inhibition after 16 to 18 hr NCCLS agar dilution method; assay type: functional
# Helicobacter pylori [14] = assay: Antibacterial activity against Helicobacter pylori 05-3 assessed as growth inhibition after 16 to 18 hr NCCLS agar dilution method; assay type: functional
# Helicobacter pylori [15] = assay: Antibacterial activity against Helicobacter pylori 06-2 assessed as growth inhibition after 16 to 18 hr NCCLS agar dilution method; assay type: functional
# Helicobacter pylori [16] = assay: Antibacterial activity against Helicobacter pylori 05-4 assessed as growth inhibition after 16 to 18 hr NCCLS agar dilution method; assay type: functional, 05-Apr
# Helicobacter pylori [17] = assay: Antibacterial activity against Helicobacter pylori 05-5 assessed as growth inhibition after 16 to 18 hr NCCLS agar dilution method; assay type: functional
# Helicobacter pylori [18] = assay: Antibacterial activity against Helicobacter pylori assessed as growth inhibition after 16 to 18 hr NCCLS agar dilution method; assay type: functional
MIC (Pseudomonas aeruginosa),MIC (Staphylococcus aureus),MIC (Escherichia coli),MIC (Helicobacter pylori [1]),MIC (Helicobacter pylori [2]),MIC (Helicobacter pylori [3]),MIC (Helicobacter pylori [4]),MIC (Helicobacter pylori [5]),MIC (Helicobacter pylori [6]),MIC (Helicobacter pylori [7]),MIC (Helicobacter pylori [8]),MIC (Helicobacter pylori [9]),MIC (Helicobacter pylori [10]),MIC (Helicobacter pylori [11]),MIC (Helicobacter pylori [12]),MIC (Helicobacter pylori [13]),MIC (Helicobacter pylori [14]),MIC (Helicobacter pylori [15]),MIC (Helicobacter pylori [16]),MIC (Helicobacter pylori [17]),Structure (SMILES),also measured
> 64 µg/mL,4 µg/mL,> 64 µg/mL,–,–,–,–,–,–,–,–,–,–,–,–,–,–,–,–,–,CCO/N=C/CC(=O)c1ccc(OC)cc1,–
> 64 µg/mL,> 64 µg/mL,> 64 µg/mL,–,–,–,–,–,–,–,–,–,–,–,–,–,–,–,–,–,CO/N=C(/C/C=N/OC)c1ccc(OC)cc1,–
> 64 µg/mL,> 64 µg/mL,> 64 µg/mL,–,–,–,–,–,–,–,–,–,–,–,–,–,–,–,–,–,CCO/N=C(/C/C=N/OCC)c1ccc(OC)cc1,–
> 64 µg/mL,> 64 µg/mL,> 64 µg/mL,> 128 µg/mL,> 128 µg/mL,> 128 µg/mL,> 128 µg/mL,128 µg/mL,> 128 µg/mL,> 128 µg/mL,> 128 µg/mL,> 128 µg/mL,> 128 µg/mL,> 128 µg/mL,128 µg/mL,> 128 µg/mL,> 128 µg/mL,> 128 µg/mL,> 128 µg/mL,> 128 µg/mL,COc1ccc(C(=O)C/C=N/NC(N)=O)cc1,MIC50 (Helicobacter pylori [18]): > 128 µg/mL; MIC90 (Helicobacter pylori [18]): > 128 µg/mL
> 64 µg/mL,> 64 µg/mL,> 64 µg/mL,> 128 µg/mL,> 128 µg/mL,> 128 µg/mL,> 128 µg/mL,128 µg/mL,> 128 µg/mL,> 128 µg/mL,> 128 µg/mL,> 128 µg/mL,> 128 µg/mL,> 128 µg/mL,128 µg/mL,> 128 µg/mL,> 128 µg/mL,> 128 µg/mL,> 128 µg/mL,> 128 µg/mL,COc1ccc(C(=O)C/C=N/NC(N)=S)cc1,MIC50 (Helicobacter pylori [18]): > 128 µg/mL; MIC90 (Helicobacter pylori [18]): > 128 µg/mL
> 64 µg/mL,32 µg/mL,> 64 µg/mL,–,–,–,–,–,–,–,–,–,–,–,–,–,–,–,–,–,CCOc1ccc(C(=O)C/C=N/OC)cc1,–
> 64 µg/mL,64 µg/mL,> 64 µg/mL,–,–,–,–,–,–,–,–,–,–,–,–,–,–,–,–,–,CCO/N=C/CC(=O)c1ccc(OCC)cc1,–
> 64 µg/mL,> 64 µg/mL,> 64 µg/mL,–,–,–,–,–,–,–,–,–,–,–,–,–,–,–,–,–,CCOc1ccc(/C(C/C=N/OC)=N\OC)cc1,–
> 64 µg/mL,> 64 µg/mL,> 64 µg/mL,–,–,–,–,–,–,–,–,–,–,–,–,–,–,–,–,–,CCO/N=C(/C/C=N/OCC)c1ccc(OCC)cc1,–
> 64 µg/mL,> 64 µg/mL,> 64 µg/mL,–,–,–,–,–,–,–,–,–,–,–,–,–,–,–,–,–,CO/N=C/CC(=O)c1ccc(OC(C)C)cc1,–
> 64 µg/mL,> 64 µg/mL,> 64 µg/mL,–,–,–,–,–,–,–,–,–,–,–,–,–,–,–,–,–,CCO/N=C/CC(=O)c1ccc(OC(C)C)cc1,–
> 64 µg/mL,> 64 µg/mL,> 64 µg/mL,–,–,–,–,–,–,–,–,–,–,–,–,–,–,–,–,–,CO/N=C(/C/C=N/OC)c1ccc(OC(C)C)cc1,–
> 64 µg/mL,> 64 µg/mL,> 64 µg/mL,–,–,–,–,–,–,–,–,–,–,–,–,–,–,–,–,–,CCO/N=C(/C/C=N/OCC)c1ccc(OC(C)C)cc1,–
64 µg/mL,> 64 µg/mL,> 64 µg/mL,–,–,–,–,–,–,–,–,–,–,–,–,–,–,–,–,–,CCCCOc1ccc(C(=O)C/C=N/OC)cc1,–
> 64 µg/mL,> 64 µg/mL,> 64 µg/mL,–,–,–,–,–,–,–,–,–,–,–,–,–,–,–,–,–,CCCCOc1ccc(C(=O)C/C=N/OCC)cc1,–
> 64 µg/mL,> 64 µg/mL,> 64 µg/mL,–,–,–,–,–,–,–,–,–,–,–,–,–,–,–,–,–,CCCCOc1ccc(/C(C/C=N/OCC)=N\OCC)cc1,–
> 64 µg/mL,> 64 µg/mL,> 64 µg/mL,> 128 µg/mL,> 128 µg/mL,128 µg/mL,> 128 µg/mL,128 µg/mL,> 128 µg/mL,128 µg/mL,> 128 µg/mL,> 128 µg/mL,128 µg/mL,> 128 µg/mL,128 µg/mL,> 128 µg/mL,> 128 µg/mL,> 128 µg/mL,> 128 µg/mL,> 128 µg/mL,COc1ccc(C(=O)/C=C\O)cc1,MIC50 (Helicobacter pylori [18]): > 128 µg/mL; MIC90 (Helicobacter pylori [18]): > 128 µg/mL
> 64 µg/mL,> 64 µg/mL,> 64 µg/mL,> 128 µg/mL,> 128 µg/mL,> 128 µg/mL,> 128 µg/mL,> 128 µg/mL,> 128 µg/mL,> 128 µg/mL,> 128 µg/mL,> 128 µg/mL,> 128 µg/mL,> 128 µg/mL,> 128 µg/mL,> 128 µg/mL,> 128 µg/mL,> 128 µg/mL,> 128 µg/mL,> 128 µg/mL,COc1ccc(C(=O)CC(O)S(=O)(=O)[O-])cc1.[Na+] (stereo not drawn),MIC50 (Helicobacter pylori [18]): > 128 µg/mL; MIC90 (Helicobacter pylori [18]): > 128 µg/mL
> 64 µg/mL,4 µg/mL,> 64 µg/mL,> 128 µg/mL,64 µg/mL,> 128 µg/mL,> 128 µg/mL,64 µg/mL,> 128 µg/mL,64 µg/mL,64 µg/mL,> 128 µg/mL,64 µg/mL,> 128 µg/mL,64 µg/mL,> 128 µg/mL,> 128 µg/mL,> 128 µg/mL,> 128 µg/mL,> 128 µg/mL,COc1ccc(C(=O)C/C=N/O)cc1,MIC50 (Helicobacter pylori [18]): > 128 µg/mL; MIC90 (Helicobacter pylori [18]): > 128 µg/mL

Structure (SMILES),MIC (Pseudomonas aeruginosa),MIC (Staphylococcus aureus),MIC (Escherichia coli),MIC (Helicobacter pylori [1]),MIC (Helicobacter pylori [2]),MIC (Helicobacter pylori [3]),MIC (Helicobacter pylori [4]),MIC (Helicobacter pylori [5]),MIC (Helicobacter pylori [6]),MIC (Helicobacter pylori [7]),MIC (Helicobacter pylori [8]),MIC (Helicobacter pylori [9]),MIC (Helicobacter pylori [10]),MIC (Helicobacter pylori [11]),MIC (Helicobacter pylori [12]),MIC (Helicobacter pylori [13]),MIC (Helicobacter pylori [14]),MIC (Helicobacter pylori [15]),MIC (Helicobacter pylori [16]),MIC (Helicobacter pylori [17]),also measured
CC[C@H]1OC(=O)[C@H](C)[C@@H](O[C@H]2C[C@@](C)(OC)[C@@H](O)[C@H](C)O2)[C@H](C)[C@@H](O[C@@H]2O[C@H](C)C[C@H](N(C)C)[C@H]2O)[C@](C)(OC)C[C@@H](C)C(=O)[C@H](C)[C@@H](O)[C@]1(C)O [CLARITHROMYCIN],> 64 µg/mL,0.12 µg/mL,32 µg/mL,> 128 µg/mL,64 µg/mL,> 128 µg/mL,> 128 µg/mL,128 µg/mL,> 128 µg/mL,> 128 µg/mL,> 128 µg/mL,64 µg/mL,32 µg/mL,> 128 µg/mL,128 µg/mL,> 128 µg/mL,64 µg/mL,> 128 µg/mL,> 128 µg/mL,> 128 µg/mL,MIC50 (Helicobacter pylori [18]): > 128 µg/mL; MIC90 (Helicobacter pylori [18]): > 128 µg/mL
Cc1ncc([N+](=O)[O-])n1CCO [METRONIDAZOLE],–,–,–,> 128 µg/mL,> 128 µg/mL,> 128 µg/mL,> 128 µg/mL,> 128 µg/mL,> 128 µg/mL,> 128 µg/mL,> 128 µg/mL,> 128 µg/mL,32 µg/mL,> 128 µg/mL,> 128 µg/mL,> 128 µg/mL,> 128 µg/mL,> 128 µg/mL,> 128 µg/mL,> 128 µg/mL,MIC50 (Helicobacter pylori [18]): > 128 µg/mL; MIC90 (Helicobacter pylori [18]): > 128 µg/mL
